In PMC5520492, “Inhibition of DNA2 nuclease as a therapeutic strategy targeting replication stress in cancer cells” (Oncogenesis, 2017):
Entries after “also recorded” stand apart in the source; their conditions may differ.

Test system: DNA2 protein level
Assay: Western blot of cellular DNA2 protein level
Type: cell-based, human
Conditions: U2OS, PANC-1, Hs578T; up to 12 hrs
Experimental: Figure S8. Analysis of DNA2 protein levels in cells treated with NSC-105808. U2OS (a), PANC-1 (b) and Hs578T (c) cells were treated with the indicated concentrations of NSC-105808 for 4 hours (right) or with a single concentration of NSC-105808 (0.3 µM for U2OS and Hs578T cells; 0.6 µM for PANC-1 cells) for 0, 4, 8, or 12 hrs (left). The results were quantified and are shown below each panel, with the error bars representing the mean ± SD of three independent experiments.

In the case of `NC1=C(Br)C(=O)c2ncccc2C1=O` [NSC-105808, 6-amino-7-bromoquinoline-5,8-dione], the “Impact on cellular level of DNA2 protein” value was “No statistically significant difference; also recorded: no impact”.
